Experimental data as given in ChEMBL document CHEMBL4507259 (2021).

Legend:
[1] = GPCRScan assay: inhibition of GABA/PBR; design: species or system Rattus norvegicus; radioligand conc. used [nm] 0.3 – 2.0, parental cells brain tissue
[2] = target: Substance-K receptor (Homo sapiens) (UniProt P21452); assay: NK2 (h) CEREP ligand profiling; conditions: filed as agonist, Compound concentration 10.0 uM
[3] = target: 5-hydroxytryptamine receptor 2A (Homo sapiens) (UniProt P28223); assay: 5-HT2A (h) CEREP ligand profiling; conditions: filed as antagonist, Compound concentration 10.0 uM
[4] = target: Delta-type opioid receptor (Homo sapiens) (UniProt P41143); assay: delta (DOP) (h) CEREP ligand profiling; conditions: filed as agonist, Compound concentration 10.0 uM
[5] = target: Adenosine receptor A2a (Homo sapiens) (UniProt P29274); assay: A2A (h) CEREP ligand profiling; conditions: filed as agonist, Compound concentration 10.0 uM
[6] = target: T1, 5-hydroxytryptamine receptor 3A (Homo sapiens) (UniProt P46098); assay: 5-HT3 (h) CEREP ligand profiling; conditions: filed as antagonist, Compound concentration 10.0 uM
T1 sequence (whole entry): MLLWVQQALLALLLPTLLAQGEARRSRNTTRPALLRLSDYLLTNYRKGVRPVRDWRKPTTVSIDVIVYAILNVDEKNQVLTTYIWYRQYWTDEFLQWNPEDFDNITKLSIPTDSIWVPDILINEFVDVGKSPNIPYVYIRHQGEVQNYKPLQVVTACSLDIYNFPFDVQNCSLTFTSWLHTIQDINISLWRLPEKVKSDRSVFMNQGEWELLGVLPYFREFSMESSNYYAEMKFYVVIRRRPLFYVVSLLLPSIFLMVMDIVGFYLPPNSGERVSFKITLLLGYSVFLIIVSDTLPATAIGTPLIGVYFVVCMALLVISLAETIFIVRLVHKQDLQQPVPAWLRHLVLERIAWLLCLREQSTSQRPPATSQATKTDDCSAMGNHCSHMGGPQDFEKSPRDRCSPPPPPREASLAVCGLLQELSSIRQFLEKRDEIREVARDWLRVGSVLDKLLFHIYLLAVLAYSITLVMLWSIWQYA

[7] = test system: Tyrosine-protein kinase ABL1 (Homo sapiens), P00519 [F317I]; conditions: Compound concentration 1000.0 nM
[8] = test system: Tyrosine-protein kinase ABL1 (Homo sapiens), P00519 [F317L]; conditions: Compound concentration 1000.0 nM
[9] = target: Aurora kinase A (Homo sapiens) (UniProt O14965); conditions: Compound concentration 1000.0 nM
[10] = test system: Serine/threonine-protein kinase B-raf (Homo sapiens), P15056 [V600E]; conditions: Compound concentration 1000.0 nM
[11] = target: Cyclin-dependent kinase 4 (Homo sapiens) (UniProt P11802); conditions: Compound concentration 1000.0 nM
[12] = target: Cyclin-dependent kinase-like 1 (Homo sapiens) (UniProt Q00532); conditions: Compound concentration 1000.0 nM
[13] = target: Tyrosine-protein kinase CSK (Homo sapiens) (UniProt P41240); conditions: Compound concentration 1000.0 nM
[14] = target: Casein kinase II subunit alpha (Homo sapiens) (UniProt P68400); conditions: Compound concentration 1000.0 nM
[15] = target: Serine/threonine-protein kinase 17A (Homo sapiens) (UniProt Q9UEE5); conditions: Compound concentration 1000.0 nM
[16] = target: Dual specificity tyrosine-phosphorylation-regulated kinase 1A (Homo sapiens) (UniProt Q13627); conditions: Compound concentration 1000.0 nM
[17] = test system: Epidermal growth factor receptor (Homo sapiens), P00533 [L858R]; conditions: Compound concentration 1000.0 nM
[18] = target: Mitogen-activated protein kinase 4 (Homo sapiens) (UniProt P31152); conditions: Compound concentration 1000.0 nM
[19] = target: Fibroblast growth factor receptor 4 (Homo sapiens) (UniProt P22455); conditions: Compound concentration 1000.0 nM
[20] = test system: Receptor-type tyrosine-protein kinase FLT3 (Homo sapiens), P36888 [UNDEFINED MUTATION]; conditions: Compound concentration 1000.0 nM
[21] = target: G protein-coupled receptor kinase 3 (Homo sapiens) (UniProt P35626); conditions: Compound concentration 1000.0 nM
[22] = target: Mitogen-activated protein kinase 10 (Homo sapiens) (UniProt P53779); conditions: Compound concentration 1000.0 nM
[23] = target: MAP/microtubule affinity-regulating kinase 4 (Homo sapiens) (UniProt Q96L34); conditions: Compound concentration 1000.0 nM
[24] = test system: Hepatocyte growth factor receptor (Homo sapiens), P08581 [M1250T]; conditions: Compound concentration 1000.0 nM
[25] = target: Dual specificity mitogen-activated protein kinase kinase 7 (Homo sapiens) (UniProt O14733); conditions: Compound concentration 1000.0 nM
[26] = target: Serine/threonine-protein kinase Nek4 (Homo sapiens) (UniProt P51957); conditions: Compound concentration 1000.0 nM
[27] = target: Phosphatidylinositol 3-kinase C2 domain-containing subunit gamma (Homo sapiens) (UniProt O75747); conditions: Compound concentration 1000.0 nM
[28] = test system: Phosphatidylinositol 4,5-bisphosphate 3-kinase catalytic subunit alpha isoform (Homo sapiens), P42336 [H1047L]; conditions: Compound concentration 1000.0 nM
[29] = target: Phosphatidylinositol 4-kinase beta (Homo sapiens) (UniProt Q9UBF8); conditions: Compound concentration 1000.0 nM
[30] = target: Phosphatidylinositol 5-phosphate 4-kinase type-2 beta (Homo sapiens) (UniProt P78356); conditions: Compound concentration 1000.0 nM
[31] = target: cAMP-dependent protein kinase catalytic subunit alpha (Homo sapiens) (UniProt P17612); conditions: Compound concentration 1000.0 nM
[32] = target: Serine/threonine-protein kinase PLK4 (Homo sapiens) (UniProt O00444); conditions: Compound concentration 1000.0 nM
[33] = target: Protein-tyrosine kinase 2-beta (Homo sapiens) (UniProt Q14289); conditions: Compound concentration 1000.0 nM
[34] = target: Tyrosine-protein kinase receptor Tie-1 (Homo sapiens) (UniProt P35590); conditions: Compound concentration 1000.0 nM
[35] = target: BDNF/NT-3 growth factors receptor (Homo sapiens) (UniProt Q16620); conditions: Compound concentration 1000.0 nM
[36] = target: Testis-specific serine/threonine-protein kinase 3 (Homo sapiens) (UniProt Q96PN8); conditions: Compound concentration 1000.0 nM
[37] = target: Serine/threonine-protein kinase 25 (Homo sapiens) (UniProt O00506); conditions: Compound concentration 1000.0 nM
[38] = target: Sodium-dependent dopamine transporter (Homo sapiens, UniProt Q01959); conditions: Compound concentration 10.0 uM
[39] = target: Beta-2 adrenergic receptor (Homo sapiens) (UniProt P07550); conditions: Compound concentration 10.0 uM
Sequence of Beta-2 adrenergic receptor (Homo sapiens) (P07550 whole entry, looked up): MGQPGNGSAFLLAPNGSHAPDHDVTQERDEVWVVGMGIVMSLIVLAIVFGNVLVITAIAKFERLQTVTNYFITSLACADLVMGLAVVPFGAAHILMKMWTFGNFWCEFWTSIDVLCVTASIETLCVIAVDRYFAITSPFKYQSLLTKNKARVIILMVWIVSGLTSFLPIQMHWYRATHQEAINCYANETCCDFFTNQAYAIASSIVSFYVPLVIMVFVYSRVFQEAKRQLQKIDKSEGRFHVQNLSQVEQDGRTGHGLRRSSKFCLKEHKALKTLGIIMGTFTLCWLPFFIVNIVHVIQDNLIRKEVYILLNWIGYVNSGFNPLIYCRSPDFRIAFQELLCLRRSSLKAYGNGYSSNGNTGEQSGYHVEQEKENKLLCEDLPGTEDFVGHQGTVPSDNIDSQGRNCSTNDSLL

Sequence of MAP/microtubule affinity-regulating kinase 4 (Homo sapiens) (Q96L34 whole entry): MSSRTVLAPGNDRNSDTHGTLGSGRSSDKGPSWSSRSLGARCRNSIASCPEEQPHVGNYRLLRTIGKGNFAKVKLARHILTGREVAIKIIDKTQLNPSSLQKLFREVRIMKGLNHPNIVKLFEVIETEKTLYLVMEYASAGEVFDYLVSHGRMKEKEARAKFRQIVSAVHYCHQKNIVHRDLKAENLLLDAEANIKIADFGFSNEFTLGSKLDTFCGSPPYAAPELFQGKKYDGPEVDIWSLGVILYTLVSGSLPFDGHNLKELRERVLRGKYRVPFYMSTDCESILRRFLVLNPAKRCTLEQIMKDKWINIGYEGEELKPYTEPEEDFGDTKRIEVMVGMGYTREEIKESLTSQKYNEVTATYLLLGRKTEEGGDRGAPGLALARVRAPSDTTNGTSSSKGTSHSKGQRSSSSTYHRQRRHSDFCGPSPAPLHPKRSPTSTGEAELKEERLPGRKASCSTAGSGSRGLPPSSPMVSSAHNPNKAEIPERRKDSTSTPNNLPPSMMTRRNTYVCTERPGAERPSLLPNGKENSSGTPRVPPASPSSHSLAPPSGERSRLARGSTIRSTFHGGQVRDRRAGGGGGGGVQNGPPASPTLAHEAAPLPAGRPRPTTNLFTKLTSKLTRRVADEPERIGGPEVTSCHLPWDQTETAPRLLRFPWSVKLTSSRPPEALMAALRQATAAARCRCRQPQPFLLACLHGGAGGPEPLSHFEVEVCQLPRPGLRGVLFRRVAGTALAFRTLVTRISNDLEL
Sequence of 5-hydroxytryptamine receptor 2A (Homo sapiens) (P28223 whole entry): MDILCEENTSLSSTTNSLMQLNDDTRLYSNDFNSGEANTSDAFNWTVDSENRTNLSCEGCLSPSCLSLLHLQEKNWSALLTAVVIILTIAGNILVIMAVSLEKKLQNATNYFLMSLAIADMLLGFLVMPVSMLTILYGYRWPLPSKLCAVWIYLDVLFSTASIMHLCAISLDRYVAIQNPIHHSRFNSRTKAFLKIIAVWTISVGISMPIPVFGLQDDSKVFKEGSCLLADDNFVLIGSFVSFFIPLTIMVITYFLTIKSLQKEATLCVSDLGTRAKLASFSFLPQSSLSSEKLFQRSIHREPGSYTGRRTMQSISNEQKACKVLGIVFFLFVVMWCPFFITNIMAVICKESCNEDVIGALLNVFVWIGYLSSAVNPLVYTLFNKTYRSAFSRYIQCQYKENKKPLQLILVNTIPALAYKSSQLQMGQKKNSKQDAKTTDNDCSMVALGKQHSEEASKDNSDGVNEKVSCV
Sequence of Sodium-dependent dopamine transporter (Q01959 whole entry): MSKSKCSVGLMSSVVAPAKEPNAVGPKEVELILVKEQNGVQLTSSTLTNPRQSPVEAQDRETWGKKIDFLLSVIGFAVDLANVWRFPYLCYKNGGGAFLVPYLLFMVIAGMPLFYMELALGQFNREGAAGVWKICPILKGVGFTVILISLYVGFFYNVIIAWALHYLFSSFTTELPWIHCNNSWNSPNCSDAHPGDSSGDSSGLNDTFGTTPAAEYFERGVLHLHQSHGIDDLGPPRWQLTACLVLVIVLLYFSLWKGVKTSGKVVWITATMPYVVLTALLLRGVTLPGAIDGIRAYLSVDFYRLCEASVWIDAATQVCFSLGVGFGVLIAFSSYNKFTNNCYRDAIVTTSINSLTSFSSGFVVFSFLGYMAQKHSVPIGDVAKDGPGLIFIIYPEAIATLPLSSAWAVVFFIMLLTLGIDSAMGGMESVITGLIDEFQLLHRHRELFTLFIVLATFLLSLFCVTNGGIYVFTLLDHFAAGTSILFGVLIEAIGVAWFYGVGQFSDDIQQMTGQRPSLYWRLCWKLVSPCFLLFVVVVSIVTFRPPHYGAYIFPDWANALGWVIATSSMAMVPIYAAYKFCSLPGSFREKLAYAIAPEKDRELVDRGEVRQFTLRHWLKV
Sequence of Phosphatidylinositol 3-kinase C2 domain-containing subunit gamma (Homo sapiens) (O75747 whole entry, the tested form may be a part, canonical isoform): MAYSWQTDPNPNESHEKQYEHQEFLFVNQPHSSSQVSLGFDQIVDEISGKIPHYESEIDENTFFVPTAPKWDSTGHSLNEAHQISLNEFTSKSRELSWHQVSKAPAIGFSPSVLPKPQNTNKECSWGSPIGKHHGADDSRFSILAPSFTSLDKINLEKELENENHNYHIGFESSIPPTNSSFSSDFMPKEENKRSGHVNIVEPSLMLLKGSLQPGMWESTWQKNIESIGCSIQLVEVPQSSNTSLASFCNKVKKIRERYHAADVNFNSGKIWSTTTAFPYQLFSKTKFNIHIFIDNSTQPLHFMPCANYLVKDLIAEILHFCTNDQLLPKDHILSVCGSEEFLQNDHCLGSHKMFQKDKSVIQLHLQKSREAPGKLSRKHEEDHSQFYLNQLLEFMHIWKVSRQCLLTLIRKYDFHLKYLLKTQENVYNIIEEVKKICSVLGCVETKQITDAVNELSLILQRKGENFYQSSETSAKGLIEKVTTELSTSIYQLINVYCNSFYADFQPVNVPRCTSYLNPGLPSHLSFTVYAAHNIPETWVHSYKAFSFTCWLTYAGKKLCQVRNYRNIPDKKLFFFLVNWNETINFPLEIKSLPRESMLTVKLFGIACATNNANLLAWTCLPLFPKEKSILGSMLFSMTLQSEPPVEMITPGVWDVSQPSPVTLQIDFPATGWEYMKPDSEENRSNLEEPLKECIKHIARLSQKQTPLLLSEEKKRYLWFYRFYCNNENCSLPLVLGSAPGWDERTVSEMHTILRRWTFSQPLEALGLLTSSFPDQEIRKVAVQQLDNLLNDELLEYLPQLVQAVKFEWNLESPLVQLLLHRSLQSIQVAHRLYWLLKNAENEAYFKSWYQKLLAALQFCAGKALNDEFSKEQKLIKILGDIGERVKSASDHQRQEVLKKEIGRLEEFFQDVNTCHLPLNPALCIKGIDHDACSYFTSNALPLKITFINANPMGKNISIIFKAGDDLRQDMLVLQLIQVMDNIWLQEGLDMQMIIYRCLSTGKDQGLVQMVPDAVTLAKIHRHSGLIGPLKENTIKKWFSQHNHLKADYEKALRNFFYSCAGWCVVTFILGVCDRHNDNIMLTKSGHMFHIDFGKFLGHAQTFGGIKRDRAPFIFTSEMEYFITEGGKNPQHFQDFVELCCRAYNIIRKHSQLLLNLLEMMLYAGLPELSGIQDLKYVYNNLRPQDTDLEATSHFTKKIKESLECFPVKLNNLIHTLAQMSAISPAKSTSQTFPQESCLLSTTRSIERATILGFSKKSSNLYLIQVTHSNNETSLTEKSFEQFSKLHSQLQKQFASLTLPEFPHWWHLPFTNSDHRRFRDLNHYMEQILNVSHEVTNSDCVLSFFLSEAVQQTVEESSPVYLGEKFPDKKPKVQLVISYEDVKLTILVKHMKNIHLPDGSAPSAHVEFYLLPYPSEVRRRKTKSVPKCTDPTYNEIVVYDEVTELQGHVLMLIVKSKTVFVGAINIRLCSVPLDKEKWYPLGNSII
Sequence of Cyclin-dependent kinase 4 (Homo sapiens) (P11802 whole entry): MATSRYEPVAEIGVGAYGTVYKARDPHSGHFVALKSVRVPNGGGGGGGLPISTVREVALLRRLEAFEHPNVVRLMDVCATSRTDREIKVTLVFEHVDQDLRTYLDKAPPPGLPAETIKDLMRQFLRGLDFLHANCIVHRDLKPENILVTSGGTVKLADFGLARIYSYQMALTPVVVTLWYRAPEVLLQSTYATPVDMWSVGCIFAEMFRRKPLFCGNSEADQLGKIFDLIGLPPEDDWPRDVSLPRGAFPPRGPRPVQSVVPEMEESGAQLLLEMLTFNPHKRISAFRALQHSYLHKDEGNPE
Sequence of G protein-coupled receptor kinase 3 (Homo sapiens) (P35626 whole entry): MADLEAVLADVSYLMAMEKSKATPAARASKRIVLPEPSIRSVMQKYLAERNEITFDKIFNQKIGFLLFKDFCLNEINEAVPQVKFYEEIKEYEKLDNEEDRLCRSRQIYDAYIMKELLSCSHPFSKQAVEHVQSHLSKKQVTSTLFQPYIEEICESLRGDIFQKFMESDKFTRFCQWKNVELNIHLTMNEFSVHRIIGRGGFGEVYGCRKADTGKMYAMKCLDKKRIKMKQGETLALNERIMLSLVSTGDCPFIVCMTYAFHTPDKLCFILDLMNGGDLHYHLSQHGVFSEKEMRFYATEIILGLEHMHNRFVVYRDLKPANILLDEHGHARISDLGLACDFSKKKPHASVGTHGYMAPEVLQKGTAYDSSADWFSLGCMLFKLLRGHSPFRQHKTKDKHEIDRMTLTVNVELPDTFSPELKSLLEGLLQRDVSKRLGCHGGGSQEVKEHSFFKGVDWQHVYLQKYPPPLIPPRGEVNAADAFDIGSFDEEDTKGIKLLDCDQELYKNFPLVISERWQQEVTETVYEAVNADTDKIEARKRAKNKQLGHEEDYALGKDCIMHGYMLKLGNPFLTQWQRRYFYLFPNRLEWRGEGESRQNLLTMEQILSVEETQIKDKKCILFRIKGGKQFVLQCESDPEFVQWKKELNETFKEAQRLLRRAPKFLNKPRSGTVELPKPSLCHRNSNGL
Sequence of Testis-specific serine/threonine-protein kinase 3 (Homo sapiens) (Q96PN8 whole entry): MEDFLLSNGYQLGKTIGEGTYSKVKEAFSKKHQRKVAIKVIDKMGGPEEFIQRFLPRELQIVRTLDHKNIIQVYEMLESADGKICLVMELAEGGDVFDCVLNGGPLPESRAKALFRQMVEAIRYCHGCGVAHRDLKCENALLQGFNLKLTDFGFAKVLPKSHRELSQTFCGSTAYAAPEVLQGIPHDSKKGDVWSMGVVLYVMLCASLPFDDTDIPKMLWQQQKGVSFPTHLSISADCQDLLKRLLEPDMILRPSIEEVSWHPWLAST

Compound | Ki [1] | pKi [1] | inhibition [2] | inhibition [3] | inhibition [4] | inhibition [5] | inhibition [6] | residual activity [7] | residual activity [8] | residual activity [9] | residual activity [10] | residual activity [11] | residual activity [12] | residual activity [13] | residual activity [14] | residual activity [15] | residual activity [16] | residual activity [17] | residual activity [18] | residual activity [19] | also measured
CNC(=O)Nc1ccc2c(c1)CC[C@@]21OC(=O)N(CC(=O)N(Cc2ccc(F)cc2)[C@@H](C)C(F)(F)F)C1=O [A-485] | 1110 nM | 5.96 | 18% | 14% | 11% | 7% | 0% | 71% | 77% | 80% | 100% | 91% | 86% | 100% | 63% | 100% | 64% | 96% | 84% | 100% | residual activity [20]: 87%; residual activity [21]: 100%; residual activity [22]: 73%; residual activity [23]: 84%; residual activity [24]: 75%; residual activity [25]: 97%; residual activity [26]: 94%; residual activity [27]: 75%; residual activity [28]: 95%; residual activity [29]: 74%; residual activity [30]: 69%; residual activity [31]: 100%; residual activity [32]: 100%; residual activity [33]: 73%; residual activity [34]: 89%; residual activity [35]: 95%; residual activity [36]: 88%; residual activity [37]: 99%; inhibition [38]: 63.9%; inhibition [39]: 19%
CNC(=O)Nc1ccc2c(c1)[C@@]1(CC2)OC(=O)N(CC(=O)N(Cc2ccc(F)cc2)[C@@H](C)C(F)(F)F)C1=O [A-486] | 2580 nM | 5.6 | 12% | 8% | 1% | -1% | 4% | 78% | 78% | 79% | 96% | 75% | 91% | 100% | 60% | 88% | 77% | 100% | 98% | 98% | residual activity [20]: 87%; residual activity [21]: 100%; residual activity [22]: 67%; residual activity [23]: 92%; residual activity [24]: 100%; residual activity [25]: 85%; residual activity [26]: 100%; residual activity [27]: 97%; residual activity [28]: 96%; residual activity [29]: 71%; residual activity [30]: 60%; residual activity [31]: 99%; residual activity [32]: 100%; residual activity [33]: 83%; residual activity [34]: 100%; residual activity [35]: 89%; residual activity [36]: 100%; residual activity [37]: 100%; inhibition [38]: -6.45%; inhibition [39]: 24.7%
